Molecules are shown by their SMILES. “And” between values parts separate entries of the source, which are not always exact repeats. Equal entries are not always repeated. Where two headings read alike, the source gives them in different places.

2 compounds from publication PMC12354831 (Cell Death Discovery, 2025) can be followed below.

Data set [1] concerns the target T1, GLUT3 (Homo sapiens, UniProt P11169).
T1 construct: expressed in transfected cells
T1 sequence (P11169 1-496): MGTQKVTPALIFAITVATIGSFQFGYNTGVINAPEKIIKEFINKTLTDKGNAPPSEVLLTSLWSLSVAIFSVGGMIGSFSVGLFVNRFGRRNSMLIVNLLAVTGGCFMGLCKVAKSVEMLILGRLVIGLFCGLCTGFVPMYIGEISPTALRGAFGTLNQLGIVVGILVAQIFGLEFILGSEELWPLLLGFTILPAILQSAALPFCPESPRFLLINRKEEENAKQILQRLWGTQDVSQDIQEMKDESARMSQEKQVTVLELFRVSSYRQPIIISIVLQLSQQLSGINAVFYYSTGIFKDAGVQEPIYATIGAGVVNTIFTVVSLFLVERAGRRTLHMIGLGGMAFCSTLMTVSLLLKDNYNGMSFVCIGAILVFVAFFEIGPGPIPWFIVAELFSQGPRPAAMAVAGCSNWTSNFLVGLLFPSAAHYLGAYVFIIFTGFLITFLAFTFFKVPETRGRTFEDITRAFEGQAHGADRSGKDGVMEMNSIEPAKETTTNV
Put plainly: Microscale thermophoresis (MST) binding assay, GLUT3-GFP in cell lysates. Here is the method:
(§1) Data from three independent measurements were analyzed using MO. Affinity Analysis software (version 2.1.3, NanoTemper Technologies).
On the technique in general: Microscale thermophoresis detects binding through changes in fluorescence in a small temperature gradient.

Data set [2] deals with GLUT3 mutants. Put plainly: MST binding assay, GLUT3 mutants taken together vs WT. Further details: species or system human. Here is the method: as §1
The test system of data set [3] is U251-MG cell-derived xenograft. The data set can be described thus: Tumor growth in U251-MG cell-derived xenograft model. Format: in vivo, nude mice (BALB/c-nu). The conditions noted are these: TMZ 40 mg/kg or CAPE 20 mg/kg every 3 days; for effect of fasting on tumor growth under drug treatment: GLUT3-overexpressing tumors, 24 h fast before each dose vs non-fasting; for effect on tumor growth vs saline groups: nude mice. The procedure: All animal studies were approved and supervised by the Ethics Committee for Animal Use and Care at Peking University. Nude mice (BALB/c-nu) were purchased and maintained as previously described. For the establishment of xenograft tumor models, 1 × 10^6 U251-MG cells (either negative vector control or overexpressing GLUT3) were injected into the bilateral axillary fossae of 4-week-old nude mice. After 7 days, when palpable tumors had formed, the mice were randomly divided into six experimental groups (n = 7 per group), and treatment was initiated immediately.
Tumor diameters were measured every 4 days using calipers. At the end of the study, all mice were sacrificed, and the tumors were carefully excised and weighed. Tumor volume was calculated using the formula V = (length*width^2)/2. Data were analyzed using statistical software to evaluate the differences among groups.

Data set [4] addresses T1, GLUT3. The data set can be described thus: Cellular uptake of TMZ and CAPE by LC-MS/MS, GLUT3 OE U251-MG cells. Type of data set: in vitro ADME. Particulars: for decrease of extracellular drug concentration: GLUT3 OE U251-MG cells, remaining extracellular drug after uptake; for increase of drug uptake by GLUT3 OE: U251-MG cells, 200 μM drug, 37 °C, 15 min, intracellular level vs control. The procedure:
A total of 6 × 10^6 cells were seeded into each well of a 6 cm Petri dish and cultured at 37 °C in a humidified atmosphere containing 5% CO2 for 8 h. The cells were then washed twice with PBS (137 mM NaCl, 2.7 mM KCl, 10 mM Na2HPO4, 1.8 mM KH2PO4, pH 7.4) and incubated in transport buffer (140 mM NaCl, 5 mM KCl, 2 mM MgCl2, 2 mM CaCl2, 30 mM Tris-HCl, pH 7.4) for 15 min at 37 °C. […] Cell supernatants were collected and stored at 4 °C for subsequent extraction. The harvested cells were washed three times with PBS and extracted with 500 µL of 80% methanol for 30 min at −80 °C. The cell lysate was then centrifuged at 14,000 × g for 5 min at 4 °C, followed by 2 min of sonication. The supernatant was transferred to a new centrifuge tube. For LC-MS/MS analysis, the cell supernatants and cell lysates were diluted at a specific ratio. A total of 100 µL of each sample was mixed with 100 µL of acetonitrile (or standard reagent) and 300 µL of internal standard solution (^2H3-TMZ 100 ng/mL and ^2H11-CAPE 20 ng/mL dissolved in acetonitrile). […] Quality control (QC) samples were prepared and analyzed alongside the experimental samples to monitor the stability and repeatability of the instrument. QC samples were inserted regularly and analyzed every 6–12 samples. Each experiment was repeated 5–6 times.
LC-MS/MS analyses were performed using a high-performance liquid chromatography (HPLC) system (Shimadzu, LC-20A) coupled to a […] (ABSciex, API4000 QTRAP). The samples were separated on a 2.1 × 100 mm ACQUITY Premier BEH C18 1.7 µm VanGuard™ FIT column (Waters, Ireland). The mobile phases consisted of: Mobile phase A (0.1% formic acid and 2.5 mM ammonium acetate in water) and Mobile phase B (0.1% formic acid and 2.5 mM ammonium acetate in acetonitrile). Gradient elution was employed, with the flow rates and gradient conditions detailed in Table S2.
The mass spectrometry conditions were as follows: Ion source: electrospray ionization (ESI); Detection mode: positive ion mode; Scanning method: multiple reaction monitoring (MRM); Spray voltage (IS): 5500 V; Ion source temperature (TEM): 555 °C; Gas curtain pressure (CUR): 25 psi; Collision activation dissociation (CAD): MEDIUM; Nebulizer gas pressure (GS1): 55 psi; Auxiliary gas pressure (GS2): 55 psi.

Data set [5] relates to U251-MG cells. Put plainly: CCK-8 IC50 in U251-MG cells expressing GLUT3 mutants vs WT. Format: cell-based, human. The conditions noted are these: GLUT3 Q159A vs GLUT3 WT. The procedure: The GBM cell line was seeded into a 96-well plate at a density of 5 × 10^3 cells per well and incubated at 37 °C in a humidified atmosphere containing 5% CO2 overnight. […] Following 24 h of drug treatment, 10 µL of CCK-8 reagent was added to each well, and the cells were incubated for an additional 1 h at 37 °C. The absorbance was then measured at 450 nm using a microplate reader.
In this study, the experimental groups were designated as Group A (cells treated with temozolomide (TMZ) or capecitabine (CAPE)), the control group as Group B (cells treated with DMSO), and the blank control group as Group C ([…]). The cell viability rate was calculated using the formula: (A-C)/(B-C) × 100%, where A, B, and C represent the absorbance values of Group A, Group B, and Group C, respectively.

Data set [6] in a line: CC50 determination (CCK-8) in normal astrocyte cell line SVGp12. Type of data set: cell-based. Particulars: human, SVGp12 normal astrocyte cells, SVGp12 normal astrocytes. Here is the method:
The human normal astrocyte cell line SVGp12 was seeded in a 96-well plate at a density of 5 × 10^3 cells per well and incubated overnight at 37 °C in a humidified atmosphere containing 5% CO2. […] After the treatment period, 10 μL of CCK-8 reagent was added to each well, followed by an additional incubation for 1 h under the same conditions. The absorbance at 450 nm was measured using a microplate reader. In this study, the experimental group treated with TMZ or CAPE was designated as group A, the control group treated with DMSO as group B, and the blank control group without cells as group C. The cell viability rate was calculated using the formula: (A-C)/(B-C) × 100%, where A, B, and C represent the absorbance values of group A, group B, and group C, respectively.

Setting [7] is: across the tested GBM cell lines (U343-MG, U251-MG), read-out: Kd values.

As usually defined, the Kd is the free concentration of one partner at which half of the binding sites on the other are occupied at equilibrium, for simple one-to-one binding. By CC50 is commonly meant the concentration giving 50% cytotoxicity. On to `CCCCCOC(=O)Nc1nc(=O)n([C@@H]2O[C@H](C)[C@@H](O)[C@H]2O)cc1F` [CAPE, capecitabine], for which, in data set [1] (U251-MG lysate, GLUT3-GFP, pH 6.8, read-out: Kd), the Kd is 1800 ± 1100 nM. Also, the Kd in data set [1] (setting [7]) was 1000 to 3000 nM and 900 to 3500 nM. The “Kd increase vs WT” value in data set [2] (seven mutants) is given as more than 1000 fold. Also, in data set [3], the “effect of fasting on tumor growth under drug treatment” value is reported as “significantly inhibited tumor growth”; the “effect on tumor growth vs saline groups” value was “reducing tumor weights and volumes”. In addition, in data set [4], the “decrease of extracellular drug concentration” value is recorded as 5.4% and the “increase of drug uptake by GLUT3 OE” value is listed as ~ 70%. In addition, the “fold increase in IC50” value in data set [5] is reported as 3.6 fold. In data set [6], this compound showed a 50% cytotoxic concentration (CC50) at 24 h of 163000 ± 31800 nM.

As for `Cn1nnc2c(C(N)=O)ncn2c1=O` [TMZ], the Kd in data set [1] (setting [7]) is 300 to 700 nM. In data set [2] (mutants T28A, S71A, Q281A, N286A, W386A, and G417A), the “Kd increase vs WT” value is more than 1000 fold. Also, in data set [3], the “effect of fasting on tumor growth under drug treatment” value was “significantly inhibited tumor growth”; the “effect on tumor growth vs saline groups” value is “reducing tumor weights and volumes”. Also, in data set [4], the “decrease of extracellular drug concentration” value stood at 7.7% and the “increase of drug uptake by GLUT3 OE” value is listed as ~ 70%. In data set [5], the “fold increase in IC50” value was determined as 1.3 fold. In addition, half-maximal cytotoxicity in data set [6] (CC50 at 24 h) was put at 104000 ± 21100 nM.
